Here are results for two compounds from patent US9149040B2, “Synergistic pesticidal compositions and related methods” (Dow AgroSciences LLC, priority 2013, dated 2015).

In this assay the test system is diamondback moth, Plutella xylostella. The assay can be described thus: Diamondback moth bioassay on track-sprayed cabbage plants/leaf discs, percent control. Format: in vivo. On the procedure: Three second-instar diamondback moth, Plutella xylostella, were infested onto each leaf disc. […] The “Colby's Expected Action” was calculated using Colby's equation as discussed previously.

With `N#CCNC(=O)c1cnccc1C(F)(F)F` [Flonicamid, N-(cyanomethyl)-4-(trifluoromethyl)-3-pyridinecarboxamide, reference compound], the “% Control Three Days After Treatment” value is, setting by setting: (flonicamid alone, dose rate 0.000039 weight %) 4.17%; (flonicamid alone, dose rate 0.000156 weight %) 4.17%.
Consider `CCN(C(=O)CCSCCC(F)(F)F)c1cn(-c2cccnc2)nc1Cl` [Compound I, N-(3-chloro-1-(pyridin-3-yl)-1H-pyrazol-4-yl)-N-ethyl-3-((3,3,3-trifluoropropyl)thio)propanamide], for which the “% Control Three Days After Treatment” value is 0% (compound I alone, dose rate 0.000625 weight %); “no control” (compound I alone, dose rate 0.000625 weight %, listed as compound I); “no control” (compound I alone, dose rate 0.0025 weight %, second-instar larvae, 400 L/Ha spray).
